The text below walks through data of ChEMBL document CHEMBL1201862, “PubChem BioAssay data set” (2004).

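The compound was tested at five concentrations on cells cultured in 96-well plates, with a 48-hour exposure period. Abbreviation: GI50, concentration required for 50% inhibition of growth.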 Activity calls are given as the source filed them. Cut-off read from the data, not from the text of the source: active = GI50 up to about 1.1 µM and inactive = higher. A value given as a limit tells only on which side of the number the result lay.

Among the test systems are CAKI-1; DMS-114; EKVX; HCC 2998; HOP-62; HOP-92; LOX IMVI; M14; MOLT-4; Malme-3M; NCI-H226; NCI-H522; RPMI-8226; SK-MEL-2; SNB-75; U-251; UACC-257; HCT-15.
Common to all, as to assay: growth of human tumour cells (NCI), 48 h

As for `Cn1cnc([N+](=O)[O-])c1Sc1nccn1-c1ccccc1`, the GI50 in the experiment with CAKI-1 is 97.9 µM (inactive); in the experiment with DMS-114 it was 29.4 µM (inactive); in the experiment on EKVX, 44.7 µM (inactive); in the experiment with HCC 2998, > 100 µM (inactive); in the experiment with HOP-62, > 100 µM (inactive); in the experiment on HOP-92, 22.5 µM (inactive). Also, the GI50 in the experiment with LOX IMVI was 16.8 µM (inactive); in the experiment on M14 it was 44.9 µM (inactive); with MOLT-4, 21.5 µM (inactive); with Malme-3M it was 17.5 µM (inactive); in the experiment with NCI-H226, 33.7 µM (inactive); with NCI-H522 it was 11.6 µM (inactive). In addition, the GI50 in the experiment with RPMI-8226 was 51.3 µM (inactive); with SK-MEL-2, 21.4 µM (inactive); in the experiment with SNB-75, 71.9 µM (inactive); in the experiment with U-251, 49.8 µM (inactive); in the experiment with UACC-257, 37.6 µM (inactive).
On to `C[C@]12CCCC(=O)C1C[C@H](C(=O)O)CC2` (stereo partly drawn), for which the GI50 with CAKI-1 is > 100 µM (inactive); in the experiment with DMS-114, > 100 µM (inactive); in the experiment on HCC 2998, > 100 µM (inactive); in the experiment on HCT-15, greater than 100 µM; in the experiment with HOP-62, > 100 µM (inactive); in the experiment with HOP-92, > 100 µM (inactive). Also, the GI50 in the experiment with LOX IMVI, in the experiment with M14, in the experiment with MOLT-4, with Malme-3M, in the experiment on NCI-H226 and with NCI-H522 was > 100 µM (inactive) throughout. The GI50 with RPMI-8226, in the experiment on SK-MEL-2, in the experiment with SNB-75, in the experiment on U-251 and with UACC-257 was > 100 µM (inactive) throughout.
Consider `Clc1cc(Cc2cc(Cl)c(Cl)c3c2OCOC3)c2c(c1Cl)COCO2`, for which the GI50 was 22.3 µM (inactive) in the experiment with CAKI-1; 45.5 µM (inactive) in the experiment on DMS-114; > 100 µM (inactive) with HCC 2998; greater than 100 µM in the experiment with HCT-15; 25.8 µM (inactive) in the experiment with HOP-62; 16.9 µM (inactive) in the experiment on HOP-92. For the same molecule, the GI50 is 53.1 µM (inactive) in the experiment on LOX IMVI; 38.4 µM (inactive) in the experiment with M14; 56.2 µM (inactive) in the experiment on MOLT-4; 40.6 µM (inactive) in the experiment with Malme-3M; 28.1 µM (inactive) in the experiment with NCI-H226; 41.9 µM (inactive) in the experiment with NCI-H522. Further, the GI50 in the experiment on RPMI-8226 is 33.4 µM (inactive); in the experiment with SK-MEL-2, 55.5 µM (inactive); with SNB-75, 27.5 µM (inactive); in the experiment on U-251, 29.1 µM (inactive); with UACC-257, 94 µM (inactive).
For `CC(=O)OC1CC2C(C)(C)C(=O)C=C[C@]2(C)C2CCC3(C)C(c4ccoc4)C(=O)[C@H]4O[C@]43[C@]12C` (stereo partly drawn), the GI50 in the experiment with CAKI-1 was 20.3 µM (inactive); in the experiment with DMS-114, > 100 µM (inactive); in the experiment with EKVX, 31.3 µM (inactive); in the experiment with HCC 2998, 17.1 µM (inactive); in the experiment on HCT-15 it was 15.1 µM; in the experiment on HOP-62, 22.6 µM (inactive). The GI50 with HOP-92 is 12.6 µM (inactive); with LOX IMVI, 20 µM (inactive); with M14, 26.7 µM (inactive); in the experiment on MOLT-4 it was 16 µM (inactive); in the experiment with Malme-3M, 16.1 µM (inactive); with NCI-H226, 23.7 µM (inactive). The GI50 in the experiment on NCI-H522 is 16.4 µM (inactive); in the experiment on RPMI-8226, 15.9 µM (inactive); with SK-MEL-2, 20.8 µM (inactive); in the experiment with SNB-75, 29.8 µM (inactive); with U-251, 18.6 µM (inactive).
